These results are taken from patent US20250281498A1, “FUSED AMINO PYRIMIDINE COMPOUNDS FOR TREATMENT OF SYNUCLEINOPATHIES AND TDP-43 PROTEINOPATHIES” (Ovid Therapeutics Inc., priority 2024, published 2025).

One data set has as its target T1, KCC4 (Homo sapiens, UniProt Q9Y666).
T1 construct: expressed in transfected cells; host or cells: HEK-293
T1 sequence (Q9Y666 1-1083): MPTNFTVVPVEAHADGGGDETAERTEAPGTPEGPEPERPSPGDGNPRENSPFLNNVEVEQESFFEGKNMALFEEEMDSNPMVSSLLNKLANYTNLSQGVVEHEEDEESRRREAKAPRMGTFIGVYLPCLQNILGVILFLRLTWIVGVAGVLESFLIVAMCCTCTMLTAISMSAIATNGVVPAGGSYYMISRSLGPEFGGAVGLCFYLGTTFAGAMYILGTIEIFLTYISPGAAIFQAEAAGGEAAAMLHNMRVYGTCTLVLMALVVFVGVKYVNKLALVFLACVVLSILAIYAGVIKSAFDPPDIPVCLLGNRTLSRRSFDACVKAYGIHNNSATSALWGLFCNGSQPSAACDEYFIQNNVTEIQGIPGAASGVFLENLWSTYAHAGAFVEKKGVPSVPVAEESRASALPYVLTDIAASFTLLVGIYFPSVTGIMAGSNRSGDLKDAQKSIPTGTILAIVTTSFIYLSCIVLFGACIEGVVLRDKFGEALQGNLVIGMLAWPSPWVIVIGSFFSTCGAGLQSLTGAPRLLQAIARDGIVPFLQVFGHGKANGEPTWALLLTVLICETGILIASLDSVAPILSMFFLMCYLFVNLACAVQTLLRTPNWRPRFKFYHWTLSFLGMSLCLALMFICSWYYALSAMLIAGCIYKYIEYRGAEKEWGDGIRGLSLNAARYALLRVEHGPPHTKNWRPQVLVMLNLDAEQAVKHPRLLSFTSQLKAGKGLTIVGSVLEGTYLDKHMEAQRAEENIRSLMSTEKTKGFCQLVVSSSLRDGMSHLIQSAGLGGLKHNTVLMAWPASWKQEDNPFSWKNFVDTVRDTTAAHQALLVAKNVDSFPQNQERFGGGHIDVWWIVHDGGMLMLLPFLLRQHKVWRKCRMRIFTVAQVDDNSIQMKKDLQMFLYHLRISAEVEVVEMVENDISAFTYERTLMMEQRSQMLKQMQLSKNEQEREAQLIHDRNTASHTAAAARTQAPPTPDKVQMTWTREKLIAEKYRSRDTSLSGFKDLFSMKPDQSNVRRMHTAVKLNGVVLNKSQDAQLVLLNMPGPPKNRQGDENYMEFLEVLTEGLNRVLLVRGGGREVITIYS
As to the kind of experiment: TI+ flux assay, HEK-293 cells expressing KCC4. Format: cell-based. The settings on record: read-out: concentration at which effects on KCC4 were seen (EC50 chart FIG. 1G). As to the method:
(§1) FLIPR TI Flux assay. HEK-293 cells were washed with HBSS, and then incubated with loading buffer containing TI sensitive fluorescent dye (https://www.moleculardevices.com), 20 μM bumetanide 20 μM ouabain and 2.5 mM probenecid for 1 h at room temperature (RT) under control conditions or with drugs in the dark using a FlexStation 3 microplate reader (Molecular Devices) and imaged […] for 30 min. Stimulus buffer was added containing 5 mM K^+/0.5 mM Tl^+ and cells were imaged every 1.5 over a 190 second time course The initial rate Tl^+ uptake (Relative Fluorescence Units (RFU) per second) was determined following addition of the stimulus buffer as outlined previously (Conway et al., 2017, supra) (Lee et al., 2022, supra).
(§2) Several studies have shown that the activity and plasma membrane accumulation of KCC2 is potentiated via phosphorylation of S940, a process mediated by the activity of protein kinase C and protein phosphatase 1 (Lee et al., 2011, supra; Lee et al., J Biol Chem 282, 29777-29784 (2007); Moore et al., Proc. Natl. Acad. Sci. U.S.A. 115, 10166-10171 (2018); Moore et al., Trends Neurosci. 40, 555-571 (2017); Silayeva et al., Proc. Natl. Acad. Sci. U.S.A. 112, 3523-3528 (2015)). […] Compared to KCC2, effects on KCC3, KCC4, and NKCC1 were only seen at concentrations more than 35-fold that of KCC2 (>100 μM) (FIG. 1G).

For the next data set, the target named is T2, NKCC1 (Homo sapiens, UniProt P55011).
T2 construct: expressed in transfected cells; host or cells: HEK-293
T2 sequence (P55011 1-1212): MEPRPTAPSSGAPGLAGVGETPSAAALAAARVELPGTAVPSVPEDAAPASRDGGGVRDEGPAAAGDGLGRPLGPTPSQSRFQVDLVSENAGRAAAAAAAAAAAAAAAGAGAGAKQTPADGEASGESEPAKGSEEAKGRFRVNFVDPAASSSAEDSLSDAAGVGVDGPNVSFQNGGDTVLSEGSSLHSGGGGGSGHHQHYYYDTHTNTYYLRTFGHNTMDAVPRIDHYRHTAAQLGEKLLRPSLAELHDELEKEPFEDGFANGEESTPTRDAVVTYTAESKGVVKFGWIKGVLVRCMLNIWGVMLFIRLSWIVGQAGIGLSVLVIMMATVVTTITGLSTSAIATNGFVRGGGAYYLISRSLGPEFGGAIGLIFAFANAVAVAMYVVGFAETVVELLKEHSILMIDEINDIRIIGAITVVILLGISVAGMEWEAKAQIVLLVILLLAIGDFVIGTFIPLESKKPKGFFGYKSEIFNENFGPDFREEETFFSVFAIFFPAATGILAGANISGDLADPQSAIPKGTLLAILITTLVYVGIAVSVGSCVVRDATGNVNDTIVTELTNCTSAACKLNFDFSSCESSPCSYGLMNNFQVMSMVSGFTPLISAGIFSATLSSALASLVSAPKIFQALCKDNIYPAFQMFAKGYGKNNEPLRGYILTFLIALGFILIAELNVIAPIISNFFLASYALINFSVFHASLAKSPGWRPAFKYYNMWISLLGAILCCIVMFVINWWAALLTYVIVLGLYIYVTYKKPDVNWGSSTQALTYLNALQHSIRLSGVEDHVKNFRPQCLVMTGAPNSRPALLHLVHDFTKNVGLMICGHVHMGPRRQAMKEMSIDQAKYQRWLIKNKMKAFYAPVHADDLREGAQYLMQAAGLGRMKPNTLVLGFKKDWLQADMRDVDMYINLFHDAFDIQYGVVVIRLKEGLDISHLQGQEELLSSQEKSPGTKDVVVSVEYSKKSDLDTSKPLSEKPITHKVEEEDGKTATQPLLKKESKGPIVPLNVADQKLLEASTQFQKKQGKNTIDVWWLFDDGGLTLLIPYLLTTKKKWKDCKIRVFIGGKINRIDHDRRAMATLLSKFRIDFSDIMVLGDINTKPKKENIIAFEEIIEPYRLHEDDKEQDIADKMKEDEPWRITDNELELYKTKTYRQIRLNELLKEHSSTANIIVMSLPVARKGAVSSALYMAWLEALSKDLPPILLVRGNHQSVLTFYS
As to the kind of experiment: TI+ flux assay, HEK-293 cells expressing NKCC1. Format: cell-based. The settings on record: read-out: concentration at which effects on NKCC1 were seen (EC50 chart FIG. 1G). How it is done:
as §1, §2

Details of data set [1]: species or system mice. The settings on record: in vivo.

SMILES strings stand for the structures.

Take `C[C@@H]1CN(c2nc3c(c(Nc4ccc(C5CCCCC5)cc4)n2)COC3)CCO1` [Compound A, (R)—N-(4-cyclohexylphenyl)-2-(2-methylmorpholino)-5,7-dihydrofuro[3,4-d]pyrimidin-4-amine]: the EC50 at KCC4 and at NKCC1 was greater than 100 µM in each case. For the same molecule, the “gross effects on mouse behavior in the open field” value in data set [1] is “no gross effects on mouse behavior”. In data set [1] (mouse, sc, 50 mg/kg), the “total distance traveled in open field” value was determined as 6134.2±235.3 cm.
